Laboratory results as given in patent US11339171B2, “MDM2 inhibitors” (Gan & Lee Pharmaceuticals, priority 2017, dated 2022).
pIC50: −log10 of the molar value. Where “and” joins values, the source holds several entries; their conditions need not be identical. Identical values can stand only once. Like-named read-outs stand apart in the source and are kept apart here.

Legend:
MDM2 = biological target: T1, MDM2 (Homo sapiens, UniProt Q00987); assay: Inhibition test of MDM2-P53 (GST-MDM2, Biotin-P53, Anti-GST-Tb, SA-XL665); type: binding
T1 construct: made in house
Outline: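 Compounds, serially diluted 5-fold (twelve concentrations), were shaken for 90 min at 25° C with a mix of GST-MDM2 (4 nM final), Biotin-P53, anti-GST-Tb and SA-XL665. Buffer: 1×PBS, 0.1% BSA, 5 mM DTT, 1 mM AEBSF; signal read on a microplate reader.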

[1] = tested on: human osteosarcoma cell line SJSA-1; assay: Inhibition of proliferation of human osteosarcoma cell line SJSA-1 (DAPI staining, In Cell Analyzer); conditions: Homo sapiens, SJSA-1, 72 h, read-out: IC50 (nM), inhibitory activity on proliferation of human osteosarcoma cell line SJSA-1, SJSA-1, incubated 72 h
Procedure: 2.2 Experiment Preparation:
2.2.1 Preparation of a culture medium for human osteosarcoma cell line SJSA-1: RPMI1640+10% FBS+1% penicillin/streptomycin
2.2.2 Preparation of a test compound solution:
a. the test compound solution with a certain concentration was taken, and diluted with the culture medium to obtain a compound solution with a final concentration of 20 μM;
b. 200 μL of a culture medium containing 0.2% DMSO (dimethyl sulfoxide) was added into H2-H10 of a 96-well plate; 300 μl of the above solution was added into H1; and
c. 100 μL was taken out from well H1, added into H2, and mixed well; then 100 μl of the resultant solution was taken and added into H3, and dilution was carried out in sequence until H9 to obtain the 3-fold serial dilution of the test compound.
2.3 Experimental Process:
2.3.1 SJSA-1 cells were inoculated into a 96-well cell plate with black transparent bottom at 4000 cells/100 μl/well, and cultured overnight at 37° C.;
2.3.3 Fixation: the cell plate was taken out, the culture medium was removed, and 50 μL of 4% paraformaldehyde solution was added to each well to fix for 10 min;
2.3.4 50 μl of 0.1 M glycine was added to neutralize for 10 min;
2.3.5 Washing was performed with 1×PBS (phosphate buffer solution pH7.2) twice;
2.3.6 Permeabilization: 50 μL of 0.2% TritonX-100 (Triton) was added per well, and permeabilization was carried out at room temperature for 10 min;
2.3.7 Washing was performed with 1×PBS (phosphate buffer solution pH7.2) twice;
2.3.9 Washing was performed with 1×PBS (phosphate buffer solution pH7.2) for three times; and
2.3.10 Scanning and analysis were performed by In cell analyzer.
The inhibition rate of each compound at each concentration point was calculated according to the following formula, and curve fitting was performed by GraphPad Prism 6.0 software to obtain the IC50 value.

[2] = Pharmacokinetics in ICR mice after intravenous and intragastric administration; type: in vivo; conditions: for F*: PO 5 mg/kg vs IV 2 mg/kg, mean; for MRT last: read-out: MRT(0-t); for MRT inf: read-out: MRT(0-∞); for Vd: read-out: Vz
Outline: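 Single-dose mouse PK study: i.v. 2 mg/kg and intragastric 5 mg/kg to fasted male ICR mice, three animals per arm. Exposure and disposition parameters (Cmax, Tmax, AUC, t1/2, F, CL, Vz) came from LC-MS/MS plasma levels.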

[3] = ICR mice, IV 2 mg/kg, individual animals 301-303, 2 mg/kg
[4] = ICR mice, PO 5 mg/kg, individual animals 401-403, 5 mg/kg
[5] = male, ICR, mouse, plasma, iv, 2 mg/kg, ICR mice, IV 2 mg/kg, individual animals 301-303
[6] = male, ICR, mouse, plasma, iv, 2 mg/kg, ICR mice, IV 2 mg/kg, individual animals 301-303, read-out: AUC(0-t)
[7] = male, ICR, mouse, plasma, iv, 2 mg/kg, ICR mice, IV 2 mg/kg, individual animals 301-303, read-out: Cmax
[8] = male, ICR, mouse, plasma, iv, 2 mg/kg, ICR mice, IV 2 mg/kg, individual animals 301-303, read-out: Tmax
[9] = male, ICR, mouse, plasma, iv, 2 mg/kg, ICR mice, IV 2 mg/kg, individual animals 301-303, read-out: t1/2 (converted)
[10] = male, ICR, mouse, plasma, iv, 2 mg/kg, ICR mice, IV 2 mg/kg, mean of 3 animals
[11] = male, ICR, mouse, plasma, iv, 2 mg/kg, ICR mice, IV 2 mg/kg, mean of 3 animals, read-out: AUC(0-t)
[12] = male, ICR, mouse, plasma, iv, 2 mg/kg, ICR mice, IV 2 mg/kg, mean of 3 animals, read-out: Cmax
[13] = male, ICR, mouse, plasma, iv, 2 mg/kg, ICR mice, IV 2 mg/kg, mean of 3 animals, read-out: Tmax
[14] = male, ICR, mouse, plasma, iv, 2 mg/kg, ICR mice, IV 2 mg/kg, mean of 3 animals, read-out: t1/2 (converted)
[15] = male, ICR, mouse, plasma, po, 5 mg/kg, ICR mice, PO 5 mg/kg, individual animals 401-403
[16] = male, ICR, mouse, plasma, po, 5 mg/kg, ICR mice, PO 5 mg/kg, individual animals 401-403, read-out: AUC(0-t)
[17] = male, ICR, mouse, plasma, po, 5 mg/kg, ICR mice, PO 5 mg/kg, individual animals 401-403, read-out: Cmax
[18] = male, ICR, mouse, plasma, po, 5 mg/kg, ICR mice, PO 5 mg/kg, individual animals 401-403, read-out: Tmax
[19] = male, ICR, mouse, plasma, po, 5 mg/kg, ICR mice, PO 5 mg/kg, individual animals 401-403, read-out: t1/2 (converted)
[20] = male, ICR, mouse, plasma, po, 5 mg/kg, ICR mice, PO 5 mg/kg, mean of 3 animals
[21] = male, ICR, mouse, plasma, po, 5 mg/kg, ICR mice, PO 5 mg/kg, mean of 3 animals, read-out: AUC(0-t)
[22] = male, ICR, mouse, plasma, po, 5 mg/kg, ICR mice, PO 5 mg/kg, mean of 3 animals, read-out: Cmax
[23] = male, ICR, mouse, plasma, po, 5 mg/kg, ICR mice, PO 5 mg/kg, mean of 3 animals, read-out: Tmax
[24] = male, ICR, mouse, plasma, po, 5 mg/kg, ICR mice, PO 5 mg/kg, mean of 3 animals, read-out: t1/2 (converted)
[25] = male, ICR, mouse, plasma, po, 5 mg/kg, oral intragastric administration 5 mg/kg, read-out: AUC0-t
[26] = male, ICR, mouse, plasma, po, 5 mg/kg, oral intragastric administration 5 mg/kg, read-out: half-life (converted)

T1 sequence (Q00987 whole entry): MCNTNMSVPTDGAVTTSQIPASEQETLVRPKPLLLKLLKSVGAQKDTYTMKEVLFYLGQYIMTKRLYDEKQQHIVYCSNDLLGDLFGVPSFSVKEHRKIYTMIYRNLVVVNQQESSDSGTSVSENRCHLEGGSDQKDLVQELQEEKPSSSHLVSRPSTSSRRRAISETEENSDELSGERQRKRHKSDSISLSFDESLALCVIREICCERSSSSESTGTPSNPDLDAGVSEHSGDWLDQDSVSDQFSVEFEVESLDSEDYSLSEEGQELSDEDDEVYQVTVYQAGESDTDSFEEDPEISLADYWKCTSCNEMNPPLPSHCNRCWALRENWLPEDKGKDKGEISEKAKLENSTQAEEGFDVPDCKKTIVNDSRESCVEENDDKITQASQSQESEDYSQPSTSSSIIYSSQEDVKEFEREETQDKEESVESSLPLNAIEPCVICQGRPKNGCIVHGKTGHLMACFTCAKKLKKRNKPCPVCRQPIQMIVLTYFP

COc1nc(N(C)C)ncc1-c1nc2c(n1C(C)C)[C@@]1(C(=O)Nc3cc(Cl)ccc31)N(c1cc(Cl)cnc1C)C2=O [Example S-135, (S)-6-chloro-5′-(5-chloro-2-methylpyridin-3-yl)-2′-(2-(dimethylamino)-4-methoxypyrimidin-5-yl)-3′-isopropyl-3′H-spiro[dihydroindole-3,4′-pyrrolo[3,4-d]imidazole]-2,6′(5′H)-dione]
pIC50 (MDM2): 8.87
IC50 [1]: 96.2 nM
AUC(0-t) [2, 3]: 7341.09 ng·h/mL and 6495.01 ng·h/mL
AUC(0-∞) [2, 3]: 7977.92 ng·h/mL and 7378.29 ng·h/mL
CL [2, 3]: 4.18 mL/min/kg and 4.52 mL/min/kg
Cmax [2, 3]: 3518.53 ng/mL and 3314.60 ng/mL
MRT(0-t) [2, 3]: 1.66 h and 1.70 h
MRT(0-∞) [2, 3]: 2.21 h and 2.57 h
Vz [2, 3]: 0.64 L/kg and 0.80 L/kg
t1/2 [2, 3]: 1.78 h and 2.03 h
F* ([2]; ICR mice): 48.91%
AUC(0-t) [2, 4]: 7012.03 ng·h/mL and 9412.84 ng·h/mL
AUC(0-∞) [2, 4]: 7126.47 ng·h/mL and 9616.11 ng·h/mL
Cmax [2, 4]: 2014.04 ng/mL and 2249.28 ng/mL
MRT(0-t) [2, 4]: 2.19 h and 2.43 h
MRT(0-∞) [2, 4]: 2.32 h and 2.59 h
t1/2 [2, 4]: 1.27 h and 1.34 h
AUC(0-inf) [2, 5]: 7840 ng·h/mL
clearance [2, 5]: 4.25 mL/min/kg
AUC(0-t) [2, 6]: 7270 ng·h/mL
Cmax [2, 7]: 3900 ng/mL
MRT last [2, 5]: 1.6 h
MRT inf [2, 5]: 2.09 h
Tmax [2, 8]: 4.8 min
Vd [2, 5]: 0.61 L/kg
half-life [2, 9]: 99 min
AUC(0-inf) [2, 10]: 7730 ng·h/mL
clearance [2, 10]: 4.32 mL/min/kg
AUC(0-t) [2, 11]: 7040 ng·h/mL
Cmax [2, 12]: 3580 ng/mL
MRT last [2, 10]: 1.65 h
MRT inf [2, 10]: 2.29 h
Tmax [2, 13]: 4.98 min
Vd [2, 10]: 0.68 L/kg
half-life [2, 14]: 109 min
AUC(0-inf) [2, 15]: 9970 ng·h/mL
AUC(0-t) [2, 16]: 9390 ng·h/mL
Cmax [2, 17]: 2160 ng/mL
MRT last [2, 15]: 2.64 h
MRT inf [2, 15]: 3.12 h
Tmax [2, 18]: 60 min
half-life [2, 19]: 112 min
AUC(0-inf) [2, 20]: 8910 ng·h/mL
AUC(0-t) [2, 21]: 8600 ng·h/mL
Cmax [2, 22]: 2140 ng/mL
MRT last [2, 20]: 2.42 h
MRT inf [2, 20]: 2.67 h
Tmax [2, 23]: 60 min
half-life [2, 24]: 89.4 min
AUC(0-t) [2, 25]: 8600 ng·h/mL

COc1cc(OC(C)C)ncc1-c1nc2c(n1C(C)C)[C@@]1(C(=O)Nc3cc(Cl)ccc31)N(c1cc(Cl)cnc1C)C2=O [Example S-137, (S)-6-chloro-5′-(5-chloro-2-methylpyridin-3-yl)-2′-(6-isopropoxy-4-methoxypyridin-3-yl)-3′-isopropyl-3′H-spiro[dihydroindole-3,4′-pyrrolo[3,4-d]imidazole]-2,6′(5′H)-dione]
pIC50 (MDM2): 8.78
IC50 [1]: 65.9 nM
AUC(0-t) [2, 3]: 15555.08 ng·h/mL and 10168.14 ng·h/mL
AUC(0-∞) [2, 3]: 15581.80 ng·h/mL and 10938.18 ng·h/mL
CL [2, 3]: 2.14 mL/min/kg and 3.05 mL/min/kg
Cmax [2, 3]: 5945.51 ng/mL and 5653.28 ng/mL
MRT(0-t) [2, 3]: 2.84 h and 1.50 h
MRT(0-∞) [2, 3]: 2.88 h and 1.97 h
Vz [2, 3]: 0.52 L/kg and 0.41 L/kg
t1/2 [2, 3]: 2.79 h and 1.57 h
F* ([2]; ICR mice): 53.35%
AUC(0-t) [2, 4]: 16097.34 ng·h/mL and 14779.57 ng·h/mL
AUC(0-∞) [2, 4]: 17159.38 ng·h/mL and 15367.65 ng·h/mL
Cmax [2, 4]: 5542.83 ng/mL and 6791.01 ng/mL
MRT(0-t) [2, 4]: 2.31 h and 2.03 h
MRT(0-∞) [2, 4]: 2.84 h and 2.35 h
t1/2 [2, 4]: 1.98 h and 1.69 h
AUC(0-inf) [2, 5]: 9740 ng·h/mL
clearance [2, 5]: 3.42 mL/min/kg
AUC(0-t) [2, 6]: 8960 ng·h/mL
Cmax [2, 7]: 5260 ng/mL
MRT last [2, 5]: 1.51 h
MRT inf [2, 5]: 2.06 h
Tmax [2, 8]: 4.8 min
Vd [2, 5]: 0.5 L/kg
half-life [2, 9]: 101 min
AUC(0-inf) [2, 10]: 12100 ng·h/mL
clearance [2, 10]: 2.87 mL/min/kg
AUC(0-t) [2, 11]: 11600 ng·h/mL
Cmax [2, 12]: 5620 ng/mL
MRT last [2, 10]: 1.95 h
MRT inf [2, 10]: 2.3 h
Tmax [2, 13]: 4.98 min
Vd [2, 10]: 0.48 L/kg
half-life [2, 14]: 121 min
AUC(0-inf) [2, 15]: 16200 ng·h/mL
AUC(0-t) [2, 16]: 15400 ng·h/mL
Cmax [2, 17]: 5880 ng/mL
MRT last [2, 15]: 2.28 h
MRT inf [2, 15]: 2.7 h
Tmax [2, 18]: 30 min
half-life [2, 19]: 111 min
AUC(0-inf) [2, 20]: 16200 ng·h/mL
AUC(0-t) [2, 21]: 15400 ng·h/mL
Cmax [2, 22]: 6070 ng/mL
MRT last [2, 20]: 2.21 h
MRT inf [2, 20]: 2.63 h
Tmax [2, 23]: 30 min
half-life [2, 24]: 110 min
AUC(0-t) [2, 25]: 15400 ng·h/mL
half-life [2, 26]: 110 min

COc1cc(C(F)(F)F)ncc1-c1nc2c(n1C(C)C)[C@@]1(C(=O)Nc3cc(Cl)ccc31)N(c1cc(Cl)ccc1C)C2=O [Example S-138, (S)-6-chloro-5′-(5-chloro-2-methylphenyl)-3′-isopropyl-2′-(4-methoxy-6-(trifluoromethyl)pyridin-3-yl)-3′H-spiro[dihydroindole-3,4′-pyrrolo[3,4-d]imidazole]-2,6′(5′H)-dione]
pIC50 (MDM2): 8.98
IC50 [1]: 75.7 nM
AUC(0-t) [2, 3]: 3427.99 ng·h/mL and 6387.52 ng·h/mL
AUC(0-∞) [2, 3]: 5237.36 ng·h/mL and 6445.45 ng·h/mL
CL [2, 3]: 6.36 mL/min/kg and 5.17 mL/min/kg
Cmax [2, 3]: 2002.99 ng/mL and 1828.27 ng/mL
MRT(0-t) [2, 3]: 4.04 h and 2.03 h and 4.19 h
MRT(0-∞) [2, 3]: 5.54 h and 4.42 h
Vz [2, 3]: 2.37 L/kg and 1.70 L/kg
t1/2 [2, 3]: 4.29 h and 3.81 h
F* ([2]; ICR mice): 58.12%
AUC(0-t) [2, 4]: 7494.57 ng·h/mL and 8147.05 ng·h/mL
AUC(0-∞) [2, 4]: 8818.35 ng·h/mL and 9514.89 ng·h/mL
Cmax [2, 4]: 1475.55 ng/mL and 1466.48 ng/mL
MRT(0-t) [2, 4]: 3.19 h and 3.27 h
MRT(0-∞) [2, 4]: 4.51 h and 4.52 h
Tmax [2, 4]: 240 min and 120 min and 60 min
t1/2 [2, 4]: 2.74 h
AUC(0-inf) [2, 5]: 6130 ng·h/mL
clearance [2, 5]: 5.44 mL/min/kg
AUC(0-t) [2, 6]: 6060 ng·h/mL
Cmax [2, 7]: 2170 ng/mL
MRT inf [2, 5]: 4.32 h
Tmax [2, 8]: 4.8 min
Vd [2, 5]: 1.9 L/kg
half-life [2, 9]: 242 min
AUC(0-inf) [2, 10]: 5940 ng·h/mL
clearance [2, 10]: 5.66 mL/min/kg
AUC(0-t) [2, 11]: 5290 ng·h/mL
Cmax [2, 12]: 2000 ng/mL
MRT last [2, 10]: 3.42 h
MRT inf [2, 10]: 4.76 h
Tmax [2, 13]: 4.98 min
Vd [2, 10]: 1.99 L/kg
half-life [2, 14]: 242 min
AUC(0-inf) [2, 15]: 9150 ng·h/mL
AUC(0-t) [2, 16]: 7430 ng·h/mL
Cmax [2, 17]: 1240 ng/mL
MRT last [2, 15]: 3.56 h
MRT inf [2, 15]: 5.12 h
half-life [2, 19]: 161 min
AUC(0-inf) [2, 20]: 9160 ng·h/mL
AUC(0-t) [2, 21]: 7690 ng·h/mL
Cmax [2, 22]: 1390 ng/mL
MRT last [2, 20]: 3.34 h
MRT inf [2, 20]: 4.72 h
Tmax [2, 23]: 140 min
half-life [2, 24]: 163 min
AUC(0-t) [2, 25]: 7690 ng·h/mL
half-life [2, 26]: 163 min
